Patent US9169252B2 (BRISTOL-MYERS SQUIBB COMPANY, priority 2014, dated 2015)
Where two headings read alike, the source gives them in different places.

Tests used:
IRAK4 = IRAK4 (Homo sapiens (Human), UniProt Q9NWZ3); assay: IRAK4 Inhibition Assay; type: biochemical; settings: ATP 500 μM, read-out: IRAK4 IC50
Method in brief: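 IRAK4 combined with fluorescent substrate and compounds, reacted 60 min at room temperature, stopped with 35 mM EDTA. Substrate and phosphorylated product separated electrophoretically on a Caliper LabChip 3000 mobility-shift reader.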

[1] = tested on: TLR2 induced IL-6 in peripheral blood mononuclear cells (PBMCs); assay: PBMC TLR2 Induced IL-6 Assay; type: cell-based, human; settings: IL-6 by ELISA; for IC50: read-out: Cell IC50; for EC50: read-out: Cell EC50
Method in brief: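 Lipoteichoic acid at 10 µg/ml served as TLR2 stimulus for 5 hours, following a 30-minute compound pretreatment at 37° C. Cells were Ficoll-isolated human PBMCs, 250000 cells/well, cultured in RPMI plus 10% heat-inactivated FCS.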

[2] = Homo sapiens, PBMC, PBMC TLR2 Induced IL-6 Assay, lipoteichoic acid stimulation
[3] = Homo sapiens, PBMC, human PBMCs, lipoteichoic acid stimulated
[4] = human PBMCs, lipoteichoic acid stimulated

Sequence of IRAK4 (Q9NWZ3 whole entry, species assumed): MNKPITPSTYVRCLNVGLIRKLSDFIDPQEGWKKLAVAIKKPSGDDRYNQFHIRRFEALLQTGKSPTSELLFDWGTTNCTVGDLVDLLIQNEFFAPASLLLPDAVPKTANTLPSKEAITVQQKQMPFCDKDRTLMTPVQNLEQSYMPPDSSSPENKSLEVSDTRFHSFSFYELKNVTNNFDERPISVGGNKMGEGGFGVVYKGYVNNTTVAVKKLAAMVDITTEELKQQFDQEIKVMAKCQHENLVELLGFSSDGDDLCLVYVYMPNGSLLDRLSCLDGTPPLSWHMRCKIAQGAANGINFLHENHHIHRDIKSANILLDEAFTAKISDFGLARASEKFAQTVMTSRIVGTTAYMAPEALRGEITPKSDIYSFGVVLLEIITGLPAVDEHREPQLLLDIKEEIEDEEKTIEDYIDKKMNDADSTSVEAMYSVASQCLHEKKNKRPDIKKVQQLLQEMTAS

SMILES: CC[C@@H](C)Nc1cc(-n2ncc3cc(C#N)cnc32)ncc1C(=O)NCCC(C)(C)O [Example 193, (R)-4-(sec-Butylamino)-6-(5-cyano-1H-pyrazolo[3,4-b]pyridin-1-yl)-N-(3-hydroxy-3-methylbutyl)nicotinamide]
- IC50 (IRAK4; IRAK4 Inhibition Assay): 3.4 nM
- IC50 [1, 2]: 287 nM

SMILES: CC(C)Nc1cc(-n2ncc3cc(C#N)cnc32)ncc1C(=O)NCCC(C)(C)NS(C)(=O)=O [Example 306]
- IC50 (IRAK4; IRAK4 Inhibition Assay): 4.8 nM
- IC50 [1, 2]: 800 nM

SMILES: CC(C)(O)[C@H](F)CNC(=O)c1cnc(-n2cnc3cc(C#N)cnc32)cc1Nc1cnn(CC(F)F)c1 [Example 375]
- IC50 (IRAK4; IRAK4 Inhibition Assay): 1.8 nM
- IC50 [1, 2]: 156 nM

SMILES: CC(C)(O)[C@H](F)CNC(=O)c1cnc(-n2ccc3cc(C#N)cnc32)cc1NC12CC3CC(CC(C3)C1)C2 [Example 13, 4-((1s,3S)-adamantan-1-ylamino)-6-(5-cyano-1H-pyrrolo[2,3-b]pyridin-1-yl)-N—((R)-2-fluoro-3-hydroxy-3-methylbutyl)nicotinamide]
- IC50 (IRAK4; IRAK4 Inhibition Assay): 12 nM
- EC50 [1, 2]: 346 nM

SMILES: CC(C)(O)[C@H](F)CNC(=O)c1cnc(-n2ccc3cc(C#N)cnc32)cc1NC1CCN(c2ccccc2)CC1 [Example 464]
- IC50 (IRAK4; IRAK4 0.6 nM): 3.1 nM
- EC50 [1, 3]: 257 nM

SMILES: CC(C)(CO)Nc1cc(-n2ncc3cc(C#N)cnc32)ncc1C(=O)NC[C@@H](F)C(C)(C)O [Example 234]
- IC50 (IRAK4; IRAK4 Inhibition Assay): 4.7 nM
- EC50 [1, 2]: 128 nM
- IC50 [1, 2]: 1360 nM

SMILES: C[C@@H](CF)Nc1cc(-n2ccc3cc(C#N)cnc32)ncc1C(=O)NCCC(C)(C)O [Example 119, (S)-6-(5-cyano-1H-pyrrolo[2,3-b]pyridin-1-yl)-4-((1-fluoropropan-2-yl)amino)-N-(3-hydroxy-3-methylbutyl)nicotinamide]
- IC50 (IRAK4; IRAK4 Inhibition Assay): 4.4 nM
- EC50 [1, 2]: 91 nM

SMILES: CC(C)Nc1cc(-n2cnc3cnc(N)nc32)ncc1C(=O)NC[C@@H](F)C(C)(C)F [Example 346]
- IC50 (IRAK4; IRAK4 Inhibition Assay): 3.6 nM
- IC50 [1, 2]: 306 nM

SMILES: CC(C)Nc1cc(-n2ncc3cc(C#N)c(N)nc32)ncc1C(=O)N[C@H](C)C1CC1 [Example 323]
- IC50 (IRAK4; IRAK4 Inhibition Assay): 17.3 nM
- IC50 [1, 2]: 612 nM

SMILES: CCCn1cc(Nc2cc(-n3ncc4cc(C#N)cnc43)ncc2C(=O)NC[C@@H](F)C(C)(C)O)cn1 [Example 380]
- IC50 (IRAK4; IRAK4 Inhibition Assay): 2.9 nM
- IC50 [1, 2]: 228 nM

SMILES: CC(C)(F)[C@H](F)CNC(=O)c1cnc(-n2cnc3cc(Cl)cnc32)cc1Nc1cnn(CC(F)F)c1 [Example 402]
- IC50 (IRAK4; IRAK4 0.6 nM): 2.5 nM
- IC50 [1, 3]: 412 nM

SMILES: CC(C)Nc1cc(-n2ccc3cc(C#N)cnc32)ncc1C(=O)NCC(F)C1(O)COC1 (stereo not shown) [Example 494]
- IC50 (IRAK4; IRAK4 0.6 nM): 3 nM
- IC50 [1, 3]: 289 nM

SMILES: CC[C@@H](C)Nc1cc(-n2ncc3cc(C#N)cnc32)ncc1C(=O)NC[C@@H](F)C(C)(C)O [Example 283]
- IC50 (IRAK4; IRAK4 Inhibition Assay): 2.8 nM
- IC50 [1, 2]: 135 nM

SMILES: CC(O)CCNc1cc(-n2ccc3cc(C#N)cnc32)ncc1C(=O)NC[C@@H](F)C(C)(C)O (single isomer, unassigned) [Example 461]
- IC50 (IRAK4; IRAK4 0.6 nM): 2.5 nM
- EC50 [1, 4]: 74 nM
- IC50 [1, 4]: 122 nM

SMILES: CC[C@@H](F)CNc1cc(-n2ncc3cc(Cl)cnc32)ncc1C(=O)NC[C@@H](F)C(C)(C)O [Example 602]
- IC50 (IRAK4; IRAK4 0.6 nM): 9.3 nM
- IC50 [1, 3]: 233 nM

SMILES: CC(C)CC(=O)NCc1cnc2c(ccn2-c2cc(NC(C)C)c(C(=O)NC[C@@H](F)C(C)(C)O)cn2)c1 [Example 503]
- IC50 (IRAK4; IRAK4 0.6 nM): 2.3 nM
- IC50 [1, 3]: 99 nM

SMILES: CC(C)(O)[C@H](F)CNC(=O)c1cnc(-n2ncc3cc(C#N)cnc32)cc1N[C@H]1CC[C@@](C)(O)CC1 [Example 607]
- IC50 (IRAK4; IRAK4 0.6 nM): 4 nM
- EC50 [1, 3]: 332 nM

SMILES: CC(C)(O)[C@H](F)CNC(=O)c1cnc(-n2ncc3cc(C#N)cnc32)cc1N[C@@H]1CCN(C(=O)c2ccc(F)cc2F)C1 [Example 538]
- IC50 (IRAK4; IRAK4 0.6 nM): 9.6 nM
- IC50 [1, 3]: 698 nM

SMILES: CO[C@H]1CC[C@H](NC(=O)c2cnc(-n3ncc4cc(C#N)cnc43)cc2NC2COC2)CC1 [Example 552]
- IC50 (IRAK4; IRAK4 0.6 nM): 13.4 nM
- IC50 [1, 3]: 213 nM

SMILES: CCn1cc(Nc2cc(-n3ncc4cc(C#N)cnc43)ncc2C(=O)NC[C@@H](F)C(C)(C)O)cn1 [Example 355]
- IC50 (IRAK4; IRAK4 Inhibition Assay): 2.4 nM
- IC50 [1, 2]: 122 nM

SMILES: CC(C)(O)[C@H](F)CNC(=O)c1cnc(-n2ccc3cc(C#N)cnc32)cc1N[C@@H]1COC[C@H]1O [Example 455]
- IC50 (IRAK4; IRAK4 0.6 nM): 2.2 nM
- EC50 [1, 4]: 72 nM

SMILES: CC(C)Nc1cc(-n2ncc3cc(C#N)cnc32)ncc1C(=O)N[C@H]1CC[C@H](NS(C)(=O)=O)CC1 [Example 166, 6-(5-cyano-1H-pyrazolo[3,4-b]pyridin-1-yl)-4-(isopropylamino)-N-((trans)-4-(methylsulfonamido)cyclohexyl)nicotinamide]
- IC50 (IRAK4; IRAK4 Inhibition Assay): 4.6 nM
- EC50 [1, 2]: 192 nM

SMILES: C[C@H](Nc1cc(-n2ccc3cc(C#N)cnc32)ncc1C(=O)NC[C@@H](F)C(C)(C)O)C1CC1 [Example 451]
- IC50 (IRAK4; IRAK4 0.6 nM): 4.4 nM
- EC50 [1, 3]: 429 nM

SMILES: CC(C)(O)[C@H](F)CNC(=O)c1cnc(-n2ncc3cc(C#N)cnc32)cc1Nc1cc(-c2ccccc2)n[nH]1 [Example 412]
- IC50 (IRAK4; IRAK4 0.6 nM): 3.6 nM
- IC50 [1, 3]: 53 nM

SMILES: CC(C)(O)[C@H](F)CNC(=O)c1cnc(-n2ncc3cc(C#N)cnc32)cc1NC1CC1 [Example 139, (R)-6-(5-cyano-1H-pyrazolo[3,4-b]pyridin-1-yl)-4-(cyclopropylamino)-N-(2-fluoro-3-hydroxy-3-methylbutyl)nicotinamide]
- IC50 (IRAK4; IRAK4 Inhibition Assay): 2.9 nM
- EC50 [1, 2]: 118 nM

SMILES: CC(C)NC(=O)[C@H]1CC[C@H](Nc2cc(-n3ncc4cc(C#N)cnc43)ncc2C(=O)NC[C@@H](F)C(C)(C)O)CC1 [Example 641]
- IC50 (IRAK4; IRAK4 0.6 nM): 6.4 nM
- IC50 [1, 3]: 718 nM

SMILES: CC(C)Nc1cc(-n2ncc3cc(C#N)cnc32)ncc1C(=O)NC[C@@H](F)C(O)(C1CC1)C1CC1 [Example 315]
- IC50 (IRAK4; IRAK4 Inhibition Assay): 10.7 nM
- IC50 [1, 2]: 267 nM

SMILES: CC(C)CC(O)[C@H](C)Nc1cc(-n2ccc3cc(C#N)cnc32)ncc1C(=O)NC[C@@H](F)C(C)(C)O (single isomer, unassigned) [Example 496]
- IC50 (IRAK4; IRAK4 0.6 nM): 10.9 nM
- IC50 [1, 3]: 197 nM

SMILES: CC(C)CCNC(=O)c1cnc(-n2ncc3cc(C#N)cnc32)cc1NC1COC1 [Example 557]
- IC50 (IRAK4; IRAK4 0.6 nM): 5.1 nM
- IC50 [1, 3]: 475 nM

SMILES: COC[C@H](F)CNC(=O)c1cnc(-n2ccc3cc(C#N)cnc32)cc1NC(C)C [Example 127, (R)-6-(5-Cyano-1H-pyrrolo[2,3-b]pyridin-1-yl)-N-(2-fluoro-3-methoxypropyl)-4-(isopropylamino)nicotinamide]
- IC50 (IRAK4; IRAK4 Inhibition Assay): 2.8 nM
- EC50 [1, 2]: 89 nM

SMILES: CC(CCO)Nc1cc(-n2ccc3cc(C#N)cnc32)ncc1C(=O)NC[C@@H](F)C(C)(C)O (single isomer, unassigned) [Example 22]
- IC50 (IRAK4; IRAK4 Inhibition Assay): 1.8 nM
- EC50 ([1]; PBMC TLR2 Induced IL-6 Assay, lipoteichoic acid stimulation): 47 nM

SMILES: CC(C)Nc1cc(-n2ccc3cnc(NCCO)nc32)ncc1C(=O)NC[C@@H](F)C(C)(C)O [Example 188, (R)—N-(2-fluoro-3-hydroxy-3-methylbutyl)-6-(2-((2-hydroxyethyl)amino)-7H-pyrrolo[2,3-d]pyrimidin-7-yl)-4-(isopropylamino)nicotinamide]
- IC50 (IRAK4; IRAK4 Inhibition Assay): 1.7 nM
- EC50 [1, 2]: 57 nM

SMILES: CC[C@@H](C)Nc1cc(-n2ncc3cc(C#N)c(N)nc32)ncc1C(=O)NC[C@@H](F)C(C)(C)O [Example 300]
- IC50 (IRAK4; IRAK4 Inhibition Assay): 1.6 nM
- IC50 [1, 2]: 83 nM

SMILES: CC(C)(O)[C@H](F)CNC(=O)c1cnc(-n2ncc3cc(C#N)cnc32)cc1Nc1ccc(-n2cncn2)cc1 [Example 526]
- IC50 (IRAK4; IRAK4 0.6 nM): 3.7 nM
- EC50 [1, 3]: 113 nM

SMILES: CC(C)Nc1cc(-n2ncc3cc(C#N)cnc32)ncc1C(=O)Nc1ccc(O)cn1 [Example 217]
- IC50 (IRAK4; IRAK4 Inhibition Assay): 15.5 nM
- EC50 [1, 2]: 503 nM

SMILES: CC(C)Nc1cc(-n2ncc3cc(C#N)cnc32)ncc1C(=O)NCCC1(O)CC1 [Example 331]
- IC50 (IRAK4; IRAK4 Inhibition Assay): 6.2 nM
- IC50 [1, 2]: 57 nM

SMILES: CC(C)(O)[C@H](F)CNC(=O)c1cnc(-n2ncc3cc(C#N)cnc32)cc1NCC(F)(F)C(C)(C)O [Example 169, (R)-6-(5-Cyano-1H-pyrazolo[3,4-b]pyridin-1-yl)-4-((2,2-difluoro-3-hydroxy-3-methylbutyl)amino)-N-(2-fluoro-3-hydroxy-3-methylbutyl)nicotinamide]
- IC50 (IRAK4; IRAK4 Inhibition Assay): 3.3 nM
- EC50 [1, 2]: 204 nM

SMILES: COC(C)(C)[C@H](F)CNC(=O)c1cnc(-n2ncc3cc(C#N)c(N)nc32)cc1NC(C)C [Example 321]
- IC50 (IRAK4; IRAK4 Inhibition Assay): 3.1 nM
- IC50 [1, 2]: 53 nM

SMILES: CC(C)[C@@H](CO)Nc1cc(-n2ncc3cc(C#N)cnc32)ncc1C(=O)NC[C@@H](F)C(C)(C)O [Example 569]
- IC50 (IRAK4; IRAK4 0.6 nM): 13 nM
- EC50 [1, 3]: 242 nM

SMILES: CC(C)Nc1cc(-n2ncc3cc(C#N)cnc32)ncc1C(=O)NCCC1(O)CCC(C)(O)CC1 (stereo not shown) [Example 277]
- IC50 (IRAK4; IRAK4 Inhibition Assay): 5.9 nM
- IC50 [1, 2]: 251 nM

SMILES: CCCNC(=O)NCc1cnc2c(ccn2-c2cc(NC(C)C)c(C(=O)NC[C@@H](F)C(C)(C)O)cn2)c1 [Example 513]
- IC50 (IRAK4; IRAK4 0.6 nM): 5.9 nM
- IC50 [1, 3]: 389 nM

SMILES: CC(C)(O)[C@H](F)CNC(=O)c1cnc(-n2cnc3cc(C#N)cnc32)cc1NC1CCOCC1 [Example 345]
- IC50 (IRAK4; IRAK4 Inhibition Assay): 7.4 nM
- IC50 [1, 2]: 180 nM

SMILES: CC(C)(O)[C@H](F)CNC(=O)c1cnc(-n2ccc3cc(C#N)cnc32)cc1NC1CC(F)(F)C1 [Example 53, (R)-6-(5-cyano-1H-pyrrolo[2,3-b]pyridin-1-yl)-4-((3,3-difluorocyclobutyl)amino)-N-(2-fluoro-3-hydroxy-3-methylbutyl)nicotinamide]
- IC50 (IRAK4; IRAK4 Inhibition Assay): 1.9 nM
- EC50 [1, 2]: 271 nM
